Values of other authors as cited in patent publication US8575155B2, “Composition and method to modify sperm function and increase male gender ratio in mammals” (priority 2008, dated 2013).

Columns and labels:
[1] = test system: early-staged mouse embryos
[2] = test system: bovine oocytes

CCN(CC)c1cc2c(cc1C)Nc1ccc(N)cc1O2 [BCB, 2-methyl-3-diethylamino-7-amino phenoxazine]
toxicity of BCB and its metabolites [1]: relatively non-toxic | increase in oxidation of glucose through the HMS [2]: 15 fold | increase in glucose oxidation through glycolysis ([2]; compared with the increase through the HMS): somewhat less increase
